Test results published in patent publication US20240246946A1, “MODULATORS OF TREX1” (Constellation Pharmaceuticals, Inc., priority 2021, published 2024).

Key:
[1] = biological target: T1, human TREX2 (residues M44-A279) (Homo sapiens, UniProt Q9BQ50); assay: hTREX2 Biochemical Assay (fluorescence, dsDNA substrate degradation); conditions: biochemical selectivity for hTREX1 vs hTREX2
T1 construct: human TREX2 (residues M44-A279, expressed in E. coli); made in house; host or cells: E. coli
T1 sequence (Q9BQ50 44-279 isoform Q9BQ50-1): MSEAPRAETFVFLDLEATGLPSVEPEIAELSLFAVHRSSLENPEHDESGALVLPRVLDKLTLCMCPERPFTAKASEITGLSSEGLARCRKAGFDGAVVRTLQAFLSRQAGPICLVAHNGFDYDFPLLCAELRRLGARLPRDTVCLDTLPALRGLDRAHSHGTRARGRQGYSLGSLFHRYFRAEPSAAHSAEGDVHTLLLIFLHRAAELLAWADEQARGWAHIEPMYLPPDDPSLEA
Procedure, shortened: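 N-His-Tev E. coli enzyme (50 pM) pre-incubated with compound 4 h at 25 °C, then 60 nM TEX615/quencher dsDNA added; 18 h at 25 °C, pH 7.4 Tris buffer with 5 mM MgCl2, 1.0% DMSO. EDTA-quenched; fluorescence 570 ex/615 em from liberated fluorophore, 10-point dose-response.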

[2] = biological target: T2, hTREX1 (Homo sapiens, UniProt Q9NSU2); assay: hTREX1 HCT116 Cell Assay (HCT116 dual cells, Lucia luciferase reporter of Type I interferon induction); assay type: cell-based; conditions: TREX1i 4 h before pBR322/BstNI transfection, read after 48 h
T2 construct: host or cells: HCT116 dual cells
T2 sequence (Q9NSU2 1-314): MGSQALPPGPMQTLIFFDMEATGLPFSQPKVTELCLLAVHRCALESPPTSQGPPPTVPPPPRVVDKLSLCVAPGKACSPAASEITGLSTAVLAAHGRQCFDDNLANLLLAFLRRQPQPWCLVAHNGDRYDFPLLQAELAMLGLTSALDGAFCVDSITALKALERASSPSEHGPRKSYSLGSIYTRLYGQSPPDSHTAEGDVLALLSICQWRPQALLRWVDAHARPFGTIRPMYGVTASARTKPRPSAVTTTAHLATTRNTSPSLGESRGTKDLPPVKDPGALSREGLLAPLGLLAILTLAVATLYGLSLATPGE
Procedure, shortened: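 HCT116 dual cells carrying an ISRE-type STAT1/STAT2-driven secreted Lucia luciferase reporter were pretreated with TREX1 inhibitor for 4 h (≤0.1% DMSO), then transfected with pBR322/BstNI DNA (100 ng/well, Lipofectamine LTX). Luciferase in medium read after 48 h at 37 °C.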

[3] = biological target: T3, full length mouse TREX1 (Mus musculus, UniProt Q91XB0); assay: mTREX1 Biochemical Assay (fluorescence, dsDNA substrate degradation); conditions: biochemical, read-out: mTREX1 IC50
T3 construct: N-terminally His-Tev tagged full length mouse TREX1; made in house; host or cells: E. coli
T3 sequence (Q91XB0 1-314): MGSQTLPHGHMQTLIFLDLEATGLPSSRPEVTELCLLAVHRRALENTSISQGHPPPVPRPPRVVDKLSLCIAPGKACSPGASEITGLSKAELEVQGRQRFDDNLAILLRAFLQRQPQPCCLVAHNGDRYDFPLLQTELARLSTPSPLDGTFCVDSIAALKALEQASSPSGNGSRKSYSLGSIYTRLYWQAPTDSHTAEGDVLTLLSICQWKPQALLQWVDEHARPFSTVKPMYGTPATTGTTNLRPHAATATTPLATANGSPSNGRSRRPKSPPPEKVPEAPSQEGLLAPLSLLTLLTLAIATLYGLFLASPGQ
Procedure, shortened: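 Reaction run 18 h at 25° C. with 60 nM TEX615/quencher-labelled dsDNA and 6 pM mouse TREX1 in Tris buffer (pH 7.4, 5 mM MgCl2, 1.0% DMSO), enzyme having sat 4 h with compound across 10 concentrations. EDTA quench; substrate degradation measured as fluorescence increase.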

[4] = biological target: T4, full length human TREX1 (Homo sapiens, UniProt Q9NSU2); assay: hTREX1 Biochemical Assay (fluorescence, dsDNA substrate degradation); conditions: biochemical, read-out: hTREX1 IC50
T4 construct: N-terminally His-Tev tagged full length human TREX1; made in house; host or cells: E. coli
T4 sequence (Q9NSU2 1-314): T2 sequence (Q9NSU2 1-314)
Procedure, shortened: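 Cleavage of 60 nM TEX615/quencher-labelled dsDNA in pH 7.4 Tris buffer with 5 mM MgCl2, 1.0% DMSO, run 18 hours at 25° C, EDTA-quenched; fluorescence read-out.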

hTREX1 vs hTREX2 selectivity [1]	IC50 [2] [nM]	IC50 [3] [nM]	IC50 [4] [nM]	Structure (SMILES)
C (C = >50 fold selective for hTREX1)	10 to 100	1 to 10	< 1	CC(c1nc(C(=O)Nc2cnoc2)c(O)c(=O)n1C)C(c1cnn(CCN2CCN(C(=O)OC(C)(C)C)CC2)c1)c1ccccc1C#N (single isomer, unassigned) [Example 21 D1E1]
C (C = >50 fold selective for hTREX1)	> 100	> 10	< 1	Cc1cc(C(c2cc(F)ccc2C#N)C(C)c2nc(C(=O)Nc3cnoc3)c(O)c(=O)n2C)n(C)n1 (single isomer, unassigned) [Example 111 D2E1]
C (C = >50 fold selective for hTREX1)	> 100	1 to 10	< 1	CC(c1nc(C(=O)Nc2cnoc2)c(O)c(=O)n1C)C(c1cnn(CCO)c1)c1ccccc1C#N (single isomer, unassigned) [Example 35 D1E1]
C (C = >50 fold selective for hTREX1)	10 to 100	1 to 10	< 1	COCCn1cc(C(c2ccccc2C#N)C(C)c2nc(C(=O)Nc3cnoc3)c(O)c(=O)n2C)cn1 (single isomer, unassigned) [Example 9 D1E1]
A (A = <25 fold selective for hTREX1)	> 100	> 10	> 10	COCCn1cc(C(c2cc(F)ccc2C#N)C(C)c2nc(C(=O)Nc3cnoc3)c(O)c(=O)n2C)c(C)n1 (single isomer, unassigned) [Example 103 D1E1]
C (C = >50 fold selective for hTREX1)	> 100	> 10	1 to 10	Cc1cnc(C)c(C(c2cc(F)ccc2C#N)C(C)c2nc(C(=O)Nc3cnoc3)c(O)c(=O)n2C)n1 (single isomer, unassigned) [Example 119 D2E1]
A (A = <25 fold selective for hTREX1)	> 100	1 to 10	1 to 10	CCc1cnn(C(c2ccccc2Cl)C(C)c2nc(C(=O)Nc3cnoc3)c(O)c(=O)n2C)c1 (single isomer, unassigned) [Example 134 D1E1]
C (C = >50 fold selective for hTREX1)	< 10	< 1	< 1	CC(c1nc(C(=O)Nc2cnoc2)c(O)c(=O)n1C)C(c1cnn(C)c1)c1ccc(Cl)cc1C#N (single isomer, unassigned) [Example 27 D1E1]
A (A = <25 fold selective for hTREX1)	> 100	1 to 10	< 1	CC(c1nc(C(=O)Nc2cnoc2)c(O)c(=O)n1C)C(c1ccccc1Cl)c1cnn(C)c1C#N (single isomer, unassigned) [Example 96 D1E1]
C (C = >50 fold selective for hTREX1)	< 10	1 to 10	< 1	Cc1cnc(C)c(C(c2cc(F)ccc2Cl)C(C)c2nc(C(=O)Nc3cnoc3)c(O)c(=O)n2C)n1 (single isomer, unassigned) [Example 121 D1E1]
C (C = >50 fold selective for hTREX1)	> 100	> 10	1 to 10	Cc1cnc(C(c2cc(F)ccc2C#N)C(C)c2nc(C(=O)Nc3cnoc3)c(O)c(=O)n2C)cn1 (single isomer, unassigned) [Example 115 D2E2]
A (A = <25 fold selective for hTREX1)	> 100	> 10	> 10	CCn1cc(C(c2ccccc2Cl)C(C)c2nc(C(=O)Nc3cnoc3)c(O)c(=O)n2C)cn1 (single isomer, unassigned) [Example 85 D2E1]
C (C = >50 fold selective for hTREX1)	< 10	1 to 10	< 1	CC(c1nc(C(=O)Nc2cnoc2)c(O)c(=O)n1C)C(c1ccccc1C#N)c1cn(C)nc1C#N (single isomer, unassigned) [Example 10 D2E1]
A (A = <25 fold selective for hTREX1)	> 100	> 10	1 to 10	Cc1cnn(C(c2cc(F)ccc2Cl)C(C)c2nc(C(=O)Nc3cnoc3)c(O)c(=O)n2C)c1 (single isomer, unassigned) [Example 144 D1E2]
C (C = >50 fold selective for hTREX1)	> 100	> 10	1 to 10	Cc1ccn(C(c2cc(F)ccc2Cl)C(C)c2nc(C(=O)Nc3cnoc3)c(O)c(=O)n2C)n1 (single isomer, unassigned) [Example 146 D1E1]
A (A = <25 fold selective for hTREX1)	> 100	> 10	1 to 10	COC(C)(C)Cn1cc(C(c2cc(F)ccc2Cl)C(C)c2nc(C(=O)Nc3cnoc3)c(O)c(=O)n2C)cn1 (single isomer, unassigned) [Example 93 D1E2]
C (C = >50 fold selective for hTREX1)	< 10	1 to 10	< 1	CC(c1nc(C(=O)Nc2cnoc2)c(O)c(=O)n1C)C(c1cnn(C)c1)c1cc(F)c(F)cc1C#N (single isomer, unassigned) [Example 25 D1E1]
C (C = >50 fold selective for hTREX1)	< 10	< 1	< 1	CCn1cc(C(c2ccccc2C#N)C(C)c2nc(C(=O)Nc3cnoc3)c(O)c(=O)n2C)c(C)n1 (single isomer, unassigned) [Example 70 D1E1]

Structure (SMILES)	hTREX1 vs hTREX2 selectivity [1]	IC50 [2] [nM]	IC50 [3] [nM]	IC50 [4] [nM]
CC(c1nc(C(=O)Nc2cnoc2)c(O)c(=O)n1C)C(c1cnc(C(F)(F)F)cn1)c1ccccc1C#N (single isomer, unassigned) [Example 118 D1E1]	B (B = 25 to 50-fold selective for hTREX1)	10 to 100	1 to 10	1 to 10
Cc1cc(C)n(C(c2ccccc2C#N)C(C)c2nc(C(=O)Nc3cnoc3)c(O)c(=O)n2C)n1 (single isomer, unassigned) [Example 137 D1E1]	B (B = 25 to 50-fold selective for hTREX1)	< 10	1 to 10	< 1
Cc1ccnn1C(c1ccccc1C#N)C(C)c1nc(C(=O)Nc2cnoc2)c(O)c(=O)n1C (single isomer, unassigned) [Example 138 D1E1]	B (B = 25 to 50-fold selective for hTREX1)	10 to 100	1 to 10	< 1
COCCn1ncc(C(c2ccccc2C#N)C(C)c2nc(C(=O)Nc3cnoc3)c(O)c(=O)n2C)c1C (single isomer, unassigned) [Example 69 D1E1]	B (B = 25 to 50-fold selective for hTREX1)	10 to 100	1 to 10	1 to 10
CC(c1nc(C(=O)Nc2cnoc2)c(O)c(=O)n1C)C(c1cnn(C(F)(F)F)c1)c1ccccc1C#N (single isomer, unassigned) [Example 151 D1E1]	B (B = 25 to 50-fold selective for hTREX1)	10 to 100	< 1	< 1
Cc1nccc(C(c2ccccc2C#N)C(C)c2nc(C(=O)Nc3cnoc3)c(O)c(=O)n2C)n1 (single isomer, unassigned) [Example 83 D2E1]	B (B = 25 to 50-fold selective for hTREX1)	> 100	> 10	1 to 10
